The text below walks through data of PubChem BioAssay AID1208 (EPA DSSTox, 2008).

Active and inactive are the calls of the source.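 Rule for the calls: active = at least one rat sex group has a carcinogenic potency value and tumor site recorded; inconclusive = only rat studies were judged inadequate by the national testing program; inactive = no potency or tumor site, with negative rat experiments.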

The subject of the data set is rat chronic carcinogenicity bioassay, TD50. As to the kind of experiment: DSSTox (CPDBAS) Carcinogenic Potency Database Summary Rat Bioassay Results. To be noted: for Potency: stronger effect = lower value; for outcome: TD50_Rat_Note: no positive results. In a few lines: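 Chronic long-term rat cancer bioassays from literature and NCI/NTP, taking the most positive result per sex. TD50 in mmol converted to a 1–100 Activity Score from log10(1/TD50). Mixtures lacking TD50 scored 50.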

The mark [1] stands for this setting: TD50_Rat_Note: TD50 is harmonic mean of more than one positive test, TargetSites_Rat_Female: thyroid gland.
Where [2] appears, read: TargetSites_Rat_Female: no positive results.
Setting [3] is: TD50_Rat_Note: TD50 is harmonic mean of more than one positive test, TargetSites_Rat_Female: liver.
[4] abbreviates: TD50_Rat_Note: TD50 is harmonic mean of more than one positive test, TargetSites_Rat_Female: nasal cavity.

Turning to `CCNC(=S)NCC`, under setting [1], the Potency was 24 mg/kg/day.
For the compound `CCN(CC)CCCNC(=O)Cn1ncc(-c2ccccc2)c1-c1ccccc1`, the outcome under setting [2] is “inactive; no positive results”.
As to `Clc1ccc2c(c1)Oc1ccc(Cl)cc1O2`, the outcome under setting [2] was “inactive; no positive results”.
As for `IC(I)I`, the outcome under setting [2] was “inactive; no positive results”.
As to `CCCCOCCO`, the outcome under setting [2] was “inactive; no positive results”.
With `CN=[N+](C)[O-]`, the Potency (TD50_Rat_Note: TD50 is harmonic mean of more than one positive test) was 0.0466 mg/kg/day.
Turning to `CC(C)(CO)CCCCCCC(C)(C)CO`, under setting [2], the outcome was “inactive; no positive results”.
Turning to `Clc1c(Cl)c(Cl)c(Cl)c(Cl)c1Cl`, for the setting “TD50_Rat_Note: TD50 is harmonic mean of more than one positive test, harmonic mean of TD50 includes a value for upper 99% confidence li, TargetSites_Rat_Female: liver”, the Potency is 3.86 mg/kg/day.
Turning to `S=[Se]`, the Potency under setting [3] is 8.01 mg/kg/day.
As to `Cc1cc(C)c(S(=O)(=O)O)cc1N=Nc1cc(S(=O)(=O)O)c2ccccc2c1O`, where the note is “TD50_Rat_Note: TD50 is harmonic mean of more than one positive test, TargetSites_Rat_BothSexes: hematopoietic system”, the Potency was 8110 mg/kg/day.
As to `CN(C)c1ccc(C(=O)c2ccc(N(C)C)cc2)cc1`, the Potency under setting [3] is 5.64 mg/kg/day.
On to `COc1ccc2nc(S(=O)Cc3ncc(C)c(OC)c3C)[nH]c2c1` (stereo unspecified), for which, for the setting “TD50_Rat_Note: TD50 is harmonic mean of more than one positive test, greater than ten-fold variation among TD50 values for positive res, TargetSites_Rat_Female: stomach”, the Potency was 119 mg/kg/day.
Regarding `Nc1ccc(Cl)cc1N`, the Potency (TD50_Rat_Note: TD50 is harmonic mean of more than one positive test, TargetSites_Rat_Female: stomach, urinary bladder) is 214 mg/kg/day.
With `CC(O)C(=O)O` (stereo unspecified), the outcome under setting [2] is “inactive; no positive results”.
As for `C=O`, the Potency (TD50_Rat_Note: TD50 is harmonic mean of more than one positive test, greater than ten-fold variation among TD50 values for positive res, TargetSites_Rat_Female: hematopoietic system, nasal cavity) is 1.35 mg/kg/day.
For `OCN(CO)c1nc(N(CO)CO)nc(N(CO)CO)n1`, where the note is “TargetSites_Rat_Female: kidney, mammary gland”, the Potency is 10.2 mg/kg/day.
`CC(=O)O[C@H]1CC[C@@]2(C)C(=CC[C@@H]3[C@@H]2CC[C@]2(C)C(=O)CC[C@@H]32)C1`: under setting [3], the Potency was 49.6 mg/kg/day.
With `COC(=O)c1ccc(C(=O)OC)cc1`, under setting [2], the outcome was “inactive; no positive results”.
`CN(C)P(=O)(N(C)C)N(C)C`: the Potency (TD50_Rat_Note: TD50 is harmonic mean of more than one positive test, TargetSites_Rat_BothSexes: nasal cavity) was 0.0344 mg/kg/day.
On to `CCN(CC)C(=S)SSC(=S)N(CC)CC`, for which the outcome under setting [2] was “inactive; no positive results”.
In the case of `Cl`, the outcome is “inactive; no positive results”. For the same compound, the outcome under setting [2] was “inactive; no positive results”.
Take `CN(C)c1ccc(Cc2ccc(N(C)C)cc2)cc1`: the Potency under setting [1] is 16.4 mg/kg/day.
With `C=CCN(CC=C)N=O`, the Potency under setting [4] is 33.9 mg/kg/day.
Consider `Nc1ccc([N+](=O)[O-])cc1O`, for which, under setting [2], the Potency is 111 mg/kg/day.
`O.O.O.O.O.O.O=S(=O)([O-])[O-].[Ni+2]`: the outcome under setting [2] is “inactive; no positive results”.
With `O=C(O)c1ccc(O)c(O)c1`, the outcome is “inactive; no positive results”.
For `CCCCCCCCCCC(C)c1ccc(S(=O)(=O)O)cc1` (stereo unspecified), the outcome under setting [2] was “inactive; no positive results”.
Regarding `CCC[CH2][Sn]([CH2]CCC)([CH2]CCC)[O][Sn]([CH2]CCC)([CH2]CCC)[CH2]CCC`, the outcome under setting [2] is “inactive; no positive results”.
In the case of `Brc1cc(Br)c2cccnc2c1`, the outcome under setting [2] was “inactive; no positive results”.
Still for that read-out and setting: to `C[C@@H]1CCC[C@H](C)N1CCCC(O)(c1ccccc1)c1ccccn1` (stereo partly specified) belongs “inactive; no positive results”; to `Clc1ccc(C(c2ccc(Cl)cc2)C(Cl)Cl)cc1`, “inactive; no positive results”.
For the compound `Cc1ccc(N)cc1N`, the Potency is 4.42 mg/kg/day. In addition, the Potency (TD50_Rat_Note: TD50 is harmonic mean of more than one positive test, TargetSites_Rat_Female: liver, mammary gland) is 2.47 mg/kg/day.
For the compound `O=[O+][O-]`, the outcome under setting [2] was “inactive; no positive results”.
Regarding `CC/C(C)=N/O`, the Potency under setting [2] is 74.5 mg/kg/day.
Take `CCCCC/C=C\C/C=C\CCCCCCCC(=O)OC`: the outcome was “inactive; no positive results”.
For `FCCl`, where the note is “TD50_Rat_Note: TD50 is harmonic mean of more than one positive test, TargetSites_Rat_Female: stomach”, the Potency is 27.5 mg/kg/day.
Regarding `O=[N+]([O-])c1ccc2c(c1)Cc1ccccc1-2`, the Potency was 0.285 mg/kg/day.
Take `CCNNC(=O)[C@@H]1[C@H](c2cc(OC)c(OC)c(OC)c2)c2cc3c(cc2[C@H](O)[C@H]1CO)OCO3`: the outcome is “inactive; no positive results”.
As to `NC(=O)c1cnccn1`, under setting [2], the outcome was “inactive; no positive results”.
Turning to `O=C(O)c1ccc([N+](=O)[O-])cc1`, under “TargetSites_Rat_Female: clitoral gland”, the Potency is 287 mg/kg/day.
In the case of `Nc1ccc(Oc2ccc(N)cc2)cc1`, where the note is “TD50_Rat_Note: TD50 is harmonic mean of more than one positive test, TargetSites_Rat_Female: liver, thyroid gland”, the Potency is 9.51 mg/kg/day.
With `[Cl-].[Cl-].[Cl-].[Fe+3]`, under setting [2], the outcome is “inactive; no positive results”.
Turning to `Nc1ccc(Cc2ccc(N)c(Cl)c2)cc1Cl`, the outcome was “inactive; no positive results”. Also, the Potency (TD50_Rat_Note: TD50 is harmonic mean of more than one positive test, TargetSites_Rat_Female: liver, lung, mammary gland) is 19.3 mg/kg/day.
As for `CN(C)C(=S)[S][Pb][S]C(=S)N(C)C`, the outcome under setting [2] is “inactive; no positive results”.
As to `O=NN1CCOC1=O`, under “TD50_Rat_Note: TD50 is harmonic mean of more than one positive test, harmonic mean of TD50 includes a value for upper 99% confidence li”, the Potency is 0.385 mg/kg/day.
Turning to `Cc1ccc(N)cc1`, the outcome is “inactive; no positive results”.
In the case of `Cn1cnc([N+](=O)[O-])c1Sc1ncnc2nc[nH]c12`, the result under setting [2] was inactive.
Regarding `CC1CC(=O)O1` (stereo unspecified), the Potency (TargetSites_Rat_Female: stomach) was 13.8 mg/kg/day.
Take `ClC1=C(Cl)[C@]2(Cl)[C@@H]3[C@H]4C[C@H]([C@@H]5O[C@H]45)[C@@H]3[C@@]1(Cl)C2(Cl)Cl`: the outcome under setting [2] was “inactive; no positive results”.
As for `CCBr`, for the setting “TD50_Rat_Note: no positive results are statistically significant, TargetSites_Rat_Female: no positive results”, the Potency is 149 mg/kg/day.
Regarding `C=Cc1cccc[n+]1[O-]`, under setting [2], the outcome was inactive.
For the compound `Nc1cc(S(=O)(=O)O)cc2cc(S(=O)(=O)O)c(N=Nc3ccc(-c4ccc(N=Nc5c(S(=O)(=O)O)cc6cc(S(=O)(=O)O)cc(N)c6c5O)cc4)cc3)c(O)c12`, the Potency under setting [3] was 1.73 mg/kg/day.
Take `CCCN(CCC)c1c([N+](=O)[O-])cc(C(F)(F)F)cc1[N+](=O)[O-]`: the outcome under setting [2] was “inactive; no positive results”.
On to `Cc1ccc(S(=O)(=O)OCCN(C)N=O)cc1`, for which the Potency (TD50_Rat_Note: TD50 is harmonic mean of more than one positive test, TargetSites_Rat_Female: liver, vascular system) was 4.8 mg/kg/day.
Take `CCCC[N+](=O)[O-]`: the outcome was “inactive; no positive results”.
For the compound `CCn1cc(C(=O)O)c(=O)c2cc3c(cc21)OCO3`, under setting [2], the Potency is 167 mg/kg/day.
As for `C=C(Cl)Cl`, the outcome under setting [2] was “inactive; no positive results”.
As to `CC(C)=CCl`, the Potency (TD50_Rat_Note: TD50 is harmonic mean of more than one positive test, TargetSites_Rat_Female: esophagus, nasal cavity, oral cavity, stomach) was 31.8 mg/kg/day.
Regarding `C[C@]12CC[C@H](O)CC1=CC[C@@H]1[C@@H]2CC[C@]2(C)C(=O)CC[C@@H]12`, under setting [3], the Potency was 83.5 mg/kg/day.
Take `N#CN=C(N)N`: the outcome under setting [2] was “inactive; no positive results”.
As for `CCCCCC(/C=C/C=C\CCCCCCCC(=O)OC)OO` (stereo unspecified), the outcome is “inactive; no positive results”.
As to `OCCN(CCO)c1nc(-c2cccs2)nc2ccccc12`, under setting [2], the result was inactive.
Same read-out and setting: to `CO[C@H]1/C=C/O[C@@]2(C)Oc3c(C)c(O)c4c(O)c(c(/C=N/N5CCN(C)CC5)c(O)c4c3C2=O)NC(=O)/C(C)=C\C=C\[C@H](C)[C@H](O)[C@@H](C)[C@@H](O)[C@@H](C)[C@H](OC(C)=O)[C@@H]1C` belongs “inactive; no positive results”; to `Cc1ccc2ncccc2c1`, “inactive; no positive results”.
For `Nc1ccc2c(c1)C(=O)c1ccccc1C2=O`, the Potency under setting [2] was 101 mg/kg/day.
In the case of `ON=C1CCCC1`, the Potency was 40.9 mg/kg/day.
As for `c1ccc(OCC2CO2)cc1` (stereo unspecified), the Potency under setting [4] is 44 mg/kg/day.
Take `O=C(Nc1ccc([N+](=O)[O-])cc1Cl)c1cc(Cl)ccc1O`: the outcome under setting [2] is “inactive; no positive results”.
Turning to `O=P(OC(CCl)CCl)(OC(CCl)CCl)OC(CCl)CCl`, the Potency (TD50_Rat_Note: TD50 is harmonic mean of more than one positive test, TargetSites_Rat_Female: kidney, liver) is 46.4 mg/kg/day.
With `NC(=S)NNC(N)=S`, the outcome under setting [2] is “inactive; no positive results”.
Turning to `Nc1c(F)c(N)c(F)c(F)c1F`, the outcome is “inactive; no positive results”.
As to `O=C1OC(O)C(C(Cl)Cl)=C1Cl` (stereo unspecified), the Potency (TD50_Rat_Note: TD50 is harmonic mean of more than one positive test, TargetSites_Rat_Female: adrenal gland, hematopoietic system, liver, mammary gland, thyroid gland) was 0.583 mg/kg/day.
With `CC(O)CN(C)N=O` (stereo unspecified), under “TD50_Rat_Note: TD50 is harmonic mean of more than one positive test, TargetSites_Rat_Female: esophagus, nasal cavity”, the Potency was 0.0463 mg/kg/day.
As to `Cc1ccc2c(-c3cccc(O)c3)nc(=O)n(C(C)C)c2c1`, the outcome under setting [2] is “inactive; no positive results”.
As to `O=P(OCCCl)(OCCCl)OCCCl`, the Potency (TD50_Rat_Note: TD50 is harmonic mean of more than one positive test, TargetSites_Rat_Female: kidney) is 86.7 mg/kg/day.
Turning to `ClC(Cl)(Cl)C(Cl)(Cl)Cl`, the Potency under setting [2] was 55.4 mg/kg/day.
As for `CC(CN1c2ccccc2Sc2ccccc21)N(C)C` (stereo unspecified), the outcome under setting [2] is “inactive; no positive results”.
For `CC[C@H](C)[C@H]1O[C@]2(CC[C@@H]1C)C[C@@H]1C[C@@H](C/C=C(\C)[C@@H](O[C@H]3C[C@H](OC)[C@@H](O[C@H]4C[C@H](OC)[C@@H](O)[C@H](C)O4)[C@H](C)O3)[C@@H](C)/C=C/C=C3\CO[C@@H]4[C@H](O)C(C)=C[C@@H](C(=O)O1)[C@]34O)O2`, the outcome is “inactive; no positive results”.
